{
  "source": "patent US9127079B2",
  "about": "“Inhibitors of phosphatase and tensin homolog (PTEN) conjugates” (THE UNIVERSITY OF BRITISH COLUMBIA, priority 2009, dated 2015)",
  "format_in_all_cases": "cell-based, rat",
  "key": {"[1]": {"test_system": "nuclear PIP3", "experiment": "Level of nuclear PIP3 after NMDA treatment", "protocol": "(§1) Dissociated cultures of rat cortical or hippocampal neurons were prepared from 18-d-old Sprague Dawley rat embryos as described previously (Mielke and Wang 2005). To obtain mixed cultures enriched with neurons, uridine (10 μM) and 5-Fluor-T-deoxyuridine (10 μM) were added to the culture medium at 3 d in vitro (DIV) and maintained for 48 h to inhibit non-neuronal cell proliferation before the cultures were returned to the normal culture medium. Mature neurons (12-14 DIV) were used for experiments.\n(§2) In order to induce excitotoxicity, 12-14 DIV cultured neurons were washed and transferred to Mg2+-free extracellular solution (ECS) containing the following (in mM): 25 HEPES acid, 140 NaCl, 33 glucose, 5.4 KCl, and 1.3 CaCl2, with pH 7.35 and osmolarity 320-330 mOsm. ECS and subjected to NMDA-induced excitotoxicity (20 μM NMDA, 10 μM glycine, 60 min at room temperature) or any other experimental conditions as indicated in the texts. Cells were then washed twice with normal ECS, and returned to the original growth conditions until additional assay.\nNuclear extracts were isolated from control and NMDA-treated cell cultures (10^8 cells) using the Panomics™ nuclear extraction kit (Panomics™; catalog number AY2002) as recommended by the manufacturer."}, "[2]": {"test_system": "cultured hippocampal neurons", "experiment": "Neuronal death by LDH assay, NMDA excitotoxicity", "conditions": "NMDA 20 uM, 1 hour", "protocol": "as §1, with “experiments. […]” for “experiments.”\n(§3) Necrotic neuronal death was quantified by measuring lactate dehydrogenase (LDH) release 20 h after treatments using a Cyto Tox™ 96 assay kit (Promega™, Madison, Wis.). Absorbance readings were measured using a spectrophotometric microplate reader. Apoptotic neuronal death was determined by visualizing the nucleus condensation and fragmentation of neurons stained with Hoechst-33342™. Images were taken with a Leica DMIRE2™ fluorescence microscope. […] These observations were quantified by double-blind counting of apoptotic and total neurons in each visual field and expressed as percentage apoptosis. […] Data are expressed as the difference in apoptosis relative to control and are expressed as a percentage."}, "[3]": {"test_system": "cultured hippocampal neurons", "experiment": "Neuronal death by nuclei staining (Hoechst 33342), NMDA excitotoxicity", "conditions": "NMDA 20 uM, 1 hour", "protocol": "as §1, with “experiments. […]” for “experiments.”\nas §3"}, "[4]": {"test_system": "PTEN", "experiment": "Immunostaining of endogenous PTEN: nuclear translocation in cultured neurons with NMDA", "conditions": "peptide 10 uM, NMDA stimulation", "protocol": "as §1, §2"}, "[5]": {"test_system": "PTEN", "experiment": "Western blotting of nuclear fractions from cultured neurons: PTEN nuclear translocation", "conditions": "NMDA stimulation", "protocol": "as §1\nIn order to induce excitotoxicity, 12-14 DIV cultured neurons were washed and transferred to Mg2+-free extracellular solution (ECS) containing the following (in mM): 25 HEPES acid, 140 NaCl, 33 glucose, 5.4 KCl, and 1.3 CaCl2, with pH 7.35 and osmolarity 320-330 mOsm. […]\nFor western blotting, 10 μg of the nuclear extract or 40 μg of total cell lysate (solubilized by 1% SDS, 1 mM EGTA, 1 mM EDTA, 1 mM DTT, 2 mM sodium orthovanadate, and protease inhibitors cocktail in PBS) from each treatment condition was separated with SDS-PAGE, transferred onto a polyvinylidene difluoride (PVDF) membrane, and probed with the relevant antibodies. […] Band intensities were quantified using NIH ImageJ™ software and normalized to the quantity of a nuclear marker or β-tubulin in each sample lane."}},
  "data": [
    {"compound": "CN[C@H](CC(=O)O)C(=O)O", "note": "[NMDA, N-methyl-D-asparate]", "values": [
      {"measurement": "level of nuclear PIP3", "setting": "[1]", "result": "reduced the level of nuclear PIP3"},
      {"measurement": "cell death, LDH assay", "setting": "[2]", "result": "significant cell death"},
      {"measurement": "cell death, nuclei staining", "setting": "[3]", "result": "significant cell death"}
    ]},
    {"compound": "YGRKKRRQRRR-PEETSEKVENGS (YGRKKRRQRRRPEETSEKVENGS; PTEN K289 interference peptide conjugated to TAT protein transduction domain) [Peptide-K289, TAT protein transduction domain fused to PTEN K289 interference peptide; control for Peptide-K13]", "values": [
      {"measurement": "PTEN nuclear translocation (endogenous PTEN immunostaining)", "setting": "[4]", "result": "failed to do so"},
      {"measurement": "PTEN nuclear translocation (western blotting of nuclear fractions)", "setting": "[5]", "result": "failed to do so"}
    ]}
  ]
}
